Among the test systems are MDA-MB-435; M14; Malme-3M; DU-145; SNB-75; NCI-H460; CAKI-1; LOX IMVI; OVCAR-4; HOP-92; HT-29; EKVX; CCRF-CEM; SF-295; SF-539; HL-60; RXF 393; NCI-H23; OVCAR-3; SK-MEL-2.
Holding throughout (assay): DTP human tumour cell line panel, 48 h

SMILES strings stand for the structures.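 Cultured in 96-well plates, cells were exposed to test compound for 48 hours across five concentrations. Here, GI50 denotes the concentration required for 50% inhibition of growth.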 Activity calls are given as the source filed them. Cut-off read from the data, not from the text of the source: active = GI50 up to about 1.1 µM and inactive = higher. Bounds are passed on as bounds.

Usually GI50 stands for the concentration at which growth is held to half of that of the control.

`CC(=O)Nc1ccc(C(O)/C(=N/N)c2nc3ccc(Cl)cc3nc2O)cc1` (stereo not given): the GI50 in the assay on MDA-MB-435, with M14, in the assay on Malme-3M, in the assay with DU-145, in the assay on SNB-75 and with NCI-H460 was > 100 µM (inactive) each time. Moreover, the GI50 with CAKI-1, with LOX IMVI, with OVCAR-4, in the assay on HOP-92, with HT-29 and in the assay on EKVX was > 100 µM (inactive) each time. Moreover, the GI50 in the assay with CCRF-CEM, in the assay on SF-295, in the assay on SF-539, in the assay on HL-60, in the assay with RXF 393 and in the assay on NCI-H23 was > 100 µM (inactive) in each case. The GI50 with OVCAR-3 and in the assay with SK-MEL-2 was > 100 µM (inactive) each time.

Turning to `C=C1C(=O)O[C@@H]2C[C@@H]3[C@]4(CC[C@]5(C)[C@@H]([C@H](C)CC/C=C(\C)C=O)CC[C@@]35C)C[C@]4(CCC(=O)OC)[C@H]12`, the GI50 was 1.51 µM (inactive) in the assay with MDA-MB-435; 1.36 µM (inactive) in the assay with M14; 1.59 µM (inactive) in the assay on Malme-3M; 1.79 µM (inactive) in the assay on DU-145; 2.4 µM (inactive) in the assay on SNB-75; 2.8 µM (inactive) in the assay on NCI-H460. Further, the GI50 was 3.26 µM (inactive) in the assay on CAKI-1; 1.28 µM (inactive) in the assay on LOX IMVI; 1.7 µM (inactive) in the assay with OVCAR-4; 1.94 µM (inactive) in the assay on HOP-92; 4.39 µM (inactive) in the assay with HT-29; 2.99 µM (inactive) in the assay with EKVX. Further, the GI50 in the assay on CCRF-CEM is 0.222 µM (active); in the assay with SF-295, 2.14 µM (inactive); in the assay on SF-539, 2 µM (inactive); with HL-60 it was 0.367 µM (active); with RXF 393, 1.89 µM (inactive); with NCI-H23, 1.84 µM (inactive). The GI50 in the assay on OVCAR-3 was 1.62 µM (inactive); with SK-MEL-2, 1.77 µM (inactive).

Consider `OC1CCN2Cc3ccccc3N=C12` (stereo not given), for which the GI50 in the assay on MDA-MB-435, with M14, in the assay with Malme-3M, in the assay on DU-145, in the assay with SNB-75 and in the assay on NCI-H460 was > 100 µM (inactive) in each case. For the same compound, the GI50 in the assay with CAKI-1, in the assay on LOX IMVI, in the assay with OVCAR-4, in the assay on HOP-92, in the assay on HT-29 and with EKVX was > 100 µM (inactive) throughout. For the same compound, the GI50 in the assay on CCRF-CEM, in the assay on SF-295, in the assay with SF-539, in the assay with HL-60, in the assay with RXF 393 and in the assay with NCI-H23 was > 100 µM (inactive) throughout. Further, the GI50 in the assay on OVCAR-3 and in the assay on SK-MEL-2 was > 100 µM (inactive) each time.

For `Cc1c2cccc-2c(OCCO)cc2c1[nH]c1ccccc12`, the GI50 is 3.53 µM (inactive) with MDA-MB-435; 1.97 µM (inactive) with M14; 1.73 µM (inactive) with Malme-3M; 5.32 µM (inactive) with DU-145; 1.71 µM (inactive) in the assay on SNB-75; 3.61 µM (inactive) with NCI-H460. In addition, the GI50 in the assay with CAKI-1 is 1.59 µM (inactive); with LOX IMVI, 1.95 µM (inactive); with OVCAR-4, 3.43 µM (inactive); with HOP-92 it was 2.75 µM (inactive); in the assay on HT-29, 3.52 µM (inactive); with EKVX, 1.04 µM (active). The GI50 with CCRF-CEM was 4.75 µM (inactive); in the assay with SF-295 it was 3.26 µM (inactive); with SF-539 it was 1.74 µM (inactive); in the assay on HL-60, 2.16 µM (inactive); in the assay with RXF 393, 2.37 µM (inactive); in the assay on NCI-H23, 2.54 µM (inactive). The GI50 in the assay with OVCAR-3 is 1.81 µM (inactive); in the assay with SK-MEL-2, 3.72 µM (inactive).

For `COC(=O)NC1C(C)OC(OC2C/C=C(/C)C3C=CC4C(OC5CC(OC6CCC(OC7CC(O)C(OC8CCC(O)C(C)O8)C(C)O7)C(C)O6)C(OC(C)=O)C(C)O5)C(C)CC(C)C4C3(C)/C(O)=C3/C(=O)OC4(CC(C=O)=CC(O)C4/C=C\2C)C3=O)CC1(C)[N+](=O)[O-]` (stereo not given), the 50% growth inhibitory concentration (GI50) in the assay with MDA-MB-435 is 0.382 µM (active); in the assay with M14 it was 1.07 µM (active); in the assay with Malme-3M it was 0.421 µM (active); in the assay with DU-145, 1.58 µM (inactive); in the assay on SNB-75, 1.75 µM (inactive); in the assay with NCI-H460, 0.778 µM (active). Besides, the GI50 with CAKI-1 is 2.49 µM (inactive); with LOX IMVI it was 0.397 µM (active); with OVCAR-4, 1.82 µM (inactive); with HOP-92, 1.06 µM (active); in the assay with HT-29, 1.1 µM (active); in the assay on EKVX it was 1.85 µM (inactive). Besides, the GI50 in the assay with CCRF-CEM was 0.178 µM (active); with SF-295, 0.993 µM (active); in the assay with SF-539, 0.34 µM (active); in the assay on HL-60 it was 1.24 µM (inactive); in the assay on RXF 393, 0.551 µM (active); in the assay with NCI-H23, 0.774 µM (active). The GI50 with OVCAR-3 was 0.971 µM (active); with SK-MEL-2 it was 0.475 µM (active).

For the compound `CCCCCC/C=C\CCCCCCCCCC1=CC(=O)C=C(OC)C1=O` [IRISQUINONE A], the GI50 in the assay on MDA-MB-435 was 3.81 µM (inactive); with M14, 4.19 µM (inactive); in the assay with Malme-3M, 12.3 µM (inactive); in the assay on DU-145, 5.62 µM (inactive); in the assay on SNB-75, 2.43 µM (inactive); with NCI-H460 it was 2.72 µM (inactive). Further, the GI50 with CAKI-1 is 3.48 µM (inactive); in the assay with LOX IMVI, 4.06 µM (inactive); with OVCAR-4, 2.05 µM (inactive); in the assay with HOP-92 it was 2.52 µM (inactive); with HT-29, 3.19 µM (inactive); in the assay on EKVX it was 3.57 µM (inactive). The GI50 is 1.57 µM (inactive) with CCRF-CEM; 3.6 µM (inactive) with SF-295; 2.05 µM (inactive) in the assay on SF-539; 1.88 µM (inactive) with HL-60; 3.01 µM (inactive) in the assay with RXF 393; 3.37 µM (inactive) in the assay with NCI-H23. For the same compound, the GI50 in the assay with OVCAR-3 is 3.98 µM (inactive); in the assay on SK-MEL-2, 4.34 µM (inactive).

As to `N=C(N)NC(=N)Nc1ccc(S(N)(=O)=O)cc1`, the GI50 in the assay with MDA-MB-435, in the assay with M14, in the assay with Malme-3M, with DU-145, in the assay on SNB-75 and in the assay on NCI-H460 was > 100 µM (inactive) throughout. Besides, the GI50 in the assay on CAKI-1, in the assay on LOX IMVI, in the assay on OVCAR-4, with HOP-92, with HT-29 and with EKVX was > 100 µM (inactive) each time. Further, the GI50 with CCRF-CEM, with SF-295, in the assay with SF-539, in the assay with HL-60, with RXF 393 and in the assay with NCI-H23 was > 100 µM (inactive) throughout. Also, the GI50 with OVCAR-3 and in the assay on SK-MEL-2 was > 100 µM (inactive) throughout.

For `COc1cc2c3c(cc(Cl)nc3c1OC)C(O)(CC(C)=O)C(=O)N2` (stereo not given), the GI50 with MDA-MB-435 is 16.4 µM (inactive); in the assay with M14, 18.9 µM (inactive); in the assay on Malme-3M it was 15.9 µM (inactive); in the assay on DU-145, > 39.1 µM (inactive); in the assay on SNB-75 it was 38.6 µM (inactive); in the assay with NCI-H460, 36 µM (inactive). Further, the GI50 was 22.1 µM (inactive) in the assay with CAKI-1; 16.3 µM (inactive) in the assay on LOX IMVI; 17.8 µM (inactive) in the assay with OVCAR-4; 19.1 µM (inactive) in the assay with HOP-92; > 45.7 µM (inactive) with HT-29; 16.2 µM (inactive) in the assay with EKVX. Also, the GI50 was 9.18 µM (inactive) in the assay on CCRF-CEM; > 100 µM (inactive) in the assay with SF-295; > 100 µM (inactive) in the assay on SF-539; 6.79 µM (inactive) in the assay on HL-60; 16.3 µM (inactive) in the assay with RXF 393; 30.7 µM (inactive) in the assay on NCI-H23. Also, the GI50 in the assay with OVCAR-3 was 33 µM (inactive); in the assay with SK-MEL-2, 20.3 µM (inactive).

In the case of `CN1CCC2(c3ccccc3)CC(=O)/C(=C/c3ccc(Cl)c(Cl)c3)C1C2.[O-][Cl+3]([O-])([O-])O` (stereo not given), the GI50 with MDA-MB-435 was 2.11 µM (inactive); with M14 it was 2.96 µM (inactive); with Malme-3M, 11.5 µM (inactive); in the assay on DU-145, 3.25 µM (inactive); with SNB-75, 3.41 µM (inactive); in the assay with NCI-H460, 2.35 µM (inactive). Further, the GI50 in the assay with CAKI-1 was 3.94 µM (inactive); in the assay on LOX IMVI, 1.71 µM (inactive); in the assay on OVCAR-4 it was 2.51 µM (inactive); in the assay with HOP-92 it was 2.31 µM (inactive); with HT-29 it was 1.95 µM (inactive); in the assay with EKVX, 2.94 µM (inactive). The GI50 is 2.02 µM (inactive) with CCRF-CEM; 2.43 µM (inactive) with SF-295; 1.98 µM (inactive) in the assay with SF-539; 0.333 µM (active) with HL-60; 2.61 µM (inactive) in the assay with RXF 393; 2.86 µM (inactive) in the assay with NCI-H23. Besides, the GI50 is 2.9 µM (inactive) in the assay on OVCAR-3 and 3.74 µM (inactive) in the assay with SK-MEL-2.

`COc1cc(OC2OC(COC(=O)c3cc(O)c(O)c(O)c3)C(O)C(O)C2O)ccc1O` (stereo not given): the GI50 with MDA-MB-435 is 24.4 µM (inactive); in the assay with M14, 90.8 µM (inactive); in the assay with Malme-3M, > 100 µM (inactive); in the assay on DU-145 it was > 100 µM (inactive); with SNB-75, > 100 µM (inactive); with NCI-H460, > 100 µM (inactive). In addition, the GI50 is 69.2 µM (inactive) in the assay on CAKI-1; 29.5 µM (inactive) with LOX IMVI; 55.3 µM (inactive) in the assay with OVCAR-4; 32.7 µM (inactive) in the assay on HOP-92; 70.5 µM (inactive) with HT-29; > 100 µM (inactive) in the assay with EKVX. For the same compound, the GI50 with CCRF-CEM is 42.2 µM (inactive); in the assay on SF-295, 78.7 µM (inactive); in the assay with SF-539 it was > 100 µM (inactive); in the assay on HL-60 it was 93.1 µM (inactive); with RXF 393, > 100 µM (inactive); in the assay on NCI-H23, > 100 µM (inactive). In addition, the figures for the GI50 with OVCAR-3 and in the assay with SK-MEL-2 were 84.1 µM (inactive) and > 100 µM (inactive), respectively.

Source of the values: ChEMBL document CHEMBL1201862, “PubChem BioAssay data set” (2004).
